Here are results for one compound from ChEMBL document CHEMBL3992482 (Medchemcomm, 2016).

For assay [1], the system named is HeLa. Put plainly: Cytotoxicity against human HeLa cells assessed as reduction in cell viability after 48 hrs by MTT assay. Type of assay: functional, cell-based. (Formazan colour is commonly taken as a measure of viable cells.)
Another assay concerns A549. In words: Cytotoxicity against human A549 cells assessed as reduction in cell viability after 48 hrs by MTT assay. Type of assay: functional, cell-based. The conditions noted are these: A549, 48 h.
For the next assay, the system named is MCF7. Put plainly: Cytotoxicity against human MCF7 cells assessed as reduction in cell viability after 48 hrs by MTT assay. The class given is functional, cell-based. To be noted: MCF7, 48 h.
The subject of assay [2] is HeLa. In words: Induction of apoptosis in human HeLa cells assessed as chromatin condensation after 24 hrs by acridine orange/ethidium bromide staining based fluorescence confocal microscopic method. The class given is functional, cell-based.
In assay [3] the test system is HeLa. Put plainly: Induction of apoptosis in human HeLa cells assessed as nuclear fragmentation after 24 hrs by acridine orange/ethidium bromide staining based fluorescence confocal microscopic method. The class given is functional, cell-based.
For assay [4], the system named is HeLa. Put plainly: Induction of apoptosis in human HeLa cells assessed as crescent shaped cell masses at 5 to 10 uM after 24 hrs by […] staining based fluorescence microscopic method. Type of assay: functional.
Assay [5] has as its system HeLa. In words: Induction of apoptosis in human HeLa cells assessed as ring shaped cell masses at 5 to 10 uM after 24 hrs by […] staining based fluorescence microscopic method. Type of assay: functional.
In assay [6] the test system is HeLa. In words: Induction of apoptosis in human HeLa cells after 24 hrs by Annexin-V FITC/propidium iodide staining based flow cytometry. Type of assay: functional, cell-based. (Flow cytometry measures light scatter and fluorescence of single cells or particles in a stream.)
The subject of assay [7] is HeLa. In words: Induction of apoptosis in human HeLa cells assessed as necrotic cells at 5 uM after 24 hrs by Annexin-V FITC/propidium iodide staining based flow cytometry (reference value: 1.81%). Type of assay: functional.
Assay [8] has as its system HeLa. Put plainly: Induction of apoptosis in human HeLa cells assessed as late apoptotic cells at 5 uM after 24 hrs by Annexin-V FITC/propidium iodide staining based flow cytometry (reference value: 0.29%). Type of assay: functional.
Assay [9] has as its system HeLa. In words: Induction of apoptosis in human HeLa cells assessed as early apoptotic cells at 5 uM after 24 hrs by Annexin-V FITC/propidium iodide staining based flow cytometry (reference value: 2.36%). The class given is functional.
Assay [10] concerns HeLa. In words: Induction of apoptosis in human HeLa cells assessed as live cells at 5 uM after 24 hrs by Annexin-V FITC/propidium iodide staining based flow cytometry (reference value: 95.5%). Type of assay: functional.
For assay [11], the system named is HeLa. Put plainly: Induction of apoptosis in human HeLa cells assessed as necrotic cells at 10 uM after 24 hrs by Annexin-V FITC/propidium iodide staining based flow cytometry (reference value: 1.81%). The class given is functional.
Assay [12] relates to HeLa. Put plainly: Induction of apoptosis in human HeLa cells assessed as late apoptotic cells at 10 uM after 24 hrs by Annexin-V FITC/propidium iodide staining based flow cytometry (reference value: 0.29%). The class given is functional.
Assay [13] concerns HeLa. Put plainly: Induction of apoptosis in human HeLa cells assessed as early apoptotic cells at 10 uM after 24 hrs by Annexin-V FITC/propidium iodide staining based flow cytometry (reference value: 2.36%). The class given is functional.
Assay [14] relates to HeLa. Put plainly: Induction of apoptosis in human HeLa cells assessed as live cells at 10 uM after 24 hrs by Annexin-V FITC/propidium iodide staining based flow cytometry (reference value: 95.5%). The class given is functional.
The subject of assay [15] is HeLa. Put plainly: Cell cycle arrest in human HeLa cells assessed as accumulation at G1 phase at 5 uM after 24 hrs by propidium iodide staining based flow cytometry (reference value: 66.42%). The class given is functional.
Assay [16] relates to HeLa. Put plainly: Cell cycle arrest in human HeLa cells assessed as accumulation at G1 phase at 10 uM after 24 hrs by propidium iodide staining based flow cytometry (reference value: 66.42%). The class given is functional.
Assay [17] deals with HeLa. Put plainly: Cell cycle arrest in human HeLa cells assessed as accumulation at S phase at 5 uM after 24 hrs by propidium iodide staining based flow cytometry (reference value: 23.69%). The class given is functional.
The test system of assay [18] is HeLa. In words: Cell cycle arrest in human HeLa cells assessed as accumulation at S phase at 10 uM after 24 hrs by propidium iodide staining based flow cytometry (reference value: 23.69%). The class given is functional.
In assay [19] the test system is HeLa. Put plainly: Cell cycle arrest in human HeLa cells assessed as accumulation at G2/M phase at 5 uM after 24 hrs by propidium iodide staining based flow cytometry (reference value: 9.89%). The class given is functional.
Assay [20] deals with HeLa. In words: Cell cycle arrest in human HeLa cells assessed as accumulation at G2/M phase at 10 uM after 24 hrs by propidium iodide staining based flow cytometry (reference value: 9.89%). The class given is functional.
Assay [21] has as its system HeLa. In words: Cell cycle arrest in human HeLa cells assessed as accumulation at S phase after 24 hrs by propidium iodide staining based flow cytometry. The class given is functional.

The term IC50 denotes the concentration needed to halve the response being measured.

Calls of active or inactive are those of the source. No cut-off for these calls is given here.

On to `CC(C)(C)c1nc(Nc2ccc(F)c(Cl)c2)sc1Cc1ccc2c(c1)OCO2`, for which the half-maximal inhibitory concentration (IC50) stood at 4.6 µM in the assay with HeLa [1], 16.3 µM in the assay with A549 and 8.66 µM with MCF7. Further, the Activity entry is “Dose-dependent effect” in the assay on HeLa [2]; “Dose-dependent effect” in the assay on HeLa [3]; “Dose-dependent effect” in the assay with HeLa [6]; 0.61% with HeLa [7]; 1.58% with HeLa [8]; 11.7% in the assay on HeLa [9]. The Activity is on record as 86.1% with HeLa [10]; 0.94% in the assay on HeLa [11]; 4.39% in the assay with HeLa [12]; 19.5% in the assay with HeLa [13]; 75.2% in the assay on HeLa [14]; 60.8% in the assay with HeLa [15]. Also, the Activity in the assay on HeLa [16] is 53.81%; in the assay on HeLa [17] it was 28.69%; with HeLa [18], 36.63%; in the assay with HeLa [19], 10.51%; in the assay with HeLa [20], 9.56%; in the assay on HeLa [21], “Dose-dependent effect”. The outcome with HeLa [4] and in the assay with HeLa [5] was Active.
